The values that follow are results of earlier work, collected in patent US9510613B2, “Panaxadiol-containing composition” (LION CORPORATION, priority 2011, dated 2016).

The conditions of this data set: commercial component, Table 3.
Turning to Glycerin Monostearate Citrate, the HLB is 9.5.

For Sucrose Lauric Acid Ester, the HLB is on record as 16.

As to Sucrose Myristic Acid Ester, the HLB is on record as 16.

As to Sucrose Palmitic Acid Ester, the HLB is 16.

For Sucrose Stearic Acid Ester, the HLB is 16.
